Measurements from patent US20080221193A1, “3-AMINO CHROMANE DERIVATIVES” (Wyeth, priority 2006, published 2008).

Experiments:
h5-HT Transporter = h5-HT Transporter (Homo sapiens, UniProt P31645); assay: h5-HT Transporter Function (Table 1); assay type: biochemical
h5HT1a receptor = molecular target: T1, h5HT1a receptor (Homo sapiens, UniProt P08908); assay: cAMP RIA in CHO cells stably transfected with the h5HT1a receptor; assay type: cell-based; conditions: for EC50: agonist, forskolin-stimulated cAMP, read-out: 5-HT1A Function cAMP EC50; for IC50: antagonist, reversal of agonist 8-OH-DPAT, read-out: 5-HT1A Function cAMP IC50
T1 construct: expressed in transfected cells; host or cells: CHO cells, stably transfected
T1 sequence (P08908 1-422): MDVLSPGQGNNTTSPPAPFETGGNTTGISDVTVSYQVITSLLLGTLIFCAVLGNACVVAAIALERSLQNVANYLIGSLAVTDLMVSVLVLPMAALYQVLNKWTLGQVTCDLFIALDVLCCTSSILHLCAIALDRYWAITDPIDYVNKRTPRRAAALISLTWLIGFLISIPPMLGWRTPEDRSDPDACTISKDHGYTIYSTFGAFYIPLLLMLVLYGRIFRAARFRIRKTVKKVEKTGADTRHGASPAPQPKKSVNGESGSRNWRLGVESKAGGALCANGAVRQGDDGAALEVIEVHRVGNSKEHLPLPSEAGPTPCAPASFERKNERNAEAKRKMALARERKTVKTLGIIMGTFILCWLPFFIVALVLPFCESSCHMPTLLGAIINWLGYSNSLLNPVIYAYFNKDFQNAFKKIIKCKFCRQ
Description: (§1) The agonist or antagonist activity at 5-HT1A receptors was established by using two different assays. The ^35S-GTPγS binding assay similar to that used by Lazareno and Birdsall (Br. J. Pharmacol., 1993, 109: 1120) was used to determine the test compound's ability to affect the binding of ^35S-GTPγS to membranes containing cloned human 5-HT1A receptors. Agonists produce an increase in binding whereas antagonists produce no increase but rather reverse the effects of the standard agonist 8-OH-DPAT. The test compound's maximum stimulatory effect is represented as the Emax, while its potency is defined by the EC50. The test compound's maximum inhibitory effect is represented as the Imax, while its potency is defined by the IC50. The second assay measured cAMP accumulation upon binding of the ligand to the 5-HT1A receptor. Antagonists block the effect of the standard agonist 8-OH-DPAT resulting in an increase in cAMP accumulation while agonists have the reverse effect. The test compound's maximum stimulatory or inhibitory effect is represented as the Emax while its potency is defined by either IC50 for an antagonist or EC50 for an agonist. [^3H]-8-OH-DPAT was used to determine maximum agonist or antagonist response in both functional assays.
Stabily transfected CHO cells were grown in DMEM containing 10% heat inactivated FBS and non-essential amino acids. The cells were plated at a density of 10(6) cells per well in a 24 well plate and incubated for 2 days in a CO2 incubator. On the second day, the media was replaced with 0.5 ml treatment buffer (DMEM+25 mM HEPES, 5 mM theophylline, 10 uM pargyline) and incubated 10 minutes at 37° C.
Wells were treated with forskolin (1 μM final conc) followed immediately by test compound (0.1 and 1 uM for initial screen) and incubated for an additional 10 min at 37° C. The reaction was terminated by removal of the media and addition of 0.5 ml ice cold assay buffer (supplied in RIA kit). Plates were stored at −20° C. prior to assessment of cAMP formation by RIA.
Compounds shown to have no agonist activities were further analyzed for ability to reverse agonist activity. In separate experiments, 6 concentrations of antagonist were preincubated for 20 minutes prior to the addition of agonist and forskolin. Cells were harvested as described. The cAMP kit was supplied by Amersham and the RIA was performed as per kit instructions.

human 5-HT1A receptors [1] = molecular target: T2, human 5-HT1A receptors (Homo sapiens, UniProt P08908); assay: 8-OH-DPAT binding in CHO cells stably transfected with human 5HT1a receptor; conditions: displacement of [3H]8-OH-DPAT, CHO cells with human 5-HT1A; read-out: 5-HT1A Receptor Affinity Ki
T2 construct: expressed in transfected cells; host or cells: CHO cells, stably transfected
T2 sequence (P08908 1-422): T1 sequence (P08908 1-422)
Procedure: High affinity for the serotonin 5-HT1A receptor was established by testing the claimed compound's ability to displace [^3H] 8-OH-DPAT (dipropylaminotetralin) from the 5-HT1A serotonin receptor following a modification of the procedure of Hall et al., (J. Neurochem., 1985, 44: 1685) which utilizes CHO cells stably transfected with human 5-HT1A receptors.
Stabily transfected CHO cells were grown in DMEM containing 10% heat inactivated FBS and non-essential amino acids. Cells were scraped off the plate, transferred to centrifuge tubes, and washed twice by centrifugation (2000 rpm for 10 min., 4° C.) in buffer (50 mM Tris pH 7.5). The resulting pellets were aliquoted and placed at −80° C. On day of assay, the cells were thawed on ice, and resuspended in buffer. The binding assay was performed in a 96 well microtiter plate in a total volume of […].
Non-specific binding was determined in the presence of […] 5HT, final ligand concentration is 1.5 nM. Following a 30 minute incubation at room temperature, the reaction was terminated by the addition of ice cold buffer and rapid filtration through a GF/B filter presoaked for 30 minutes in 0.5% PEI. Compounds were initially tested in a single point assay to determine percent inhibition at […]. Subsequently, Ki values were determined for compounds defined to be active.

human 5-HT1A receptors [2] = molecular target: T2, human 5-HT1A receptors; assay: 35S-GTPγS binding assay, membranes containing cloned human 5-HT1A receptors; assay type: biochemical; conditions: for IC50: read-out: 5-HT1A Function GTPγS IC50
Description: as §1

Sequence of h5-HT Transporter (P31645 whole entry): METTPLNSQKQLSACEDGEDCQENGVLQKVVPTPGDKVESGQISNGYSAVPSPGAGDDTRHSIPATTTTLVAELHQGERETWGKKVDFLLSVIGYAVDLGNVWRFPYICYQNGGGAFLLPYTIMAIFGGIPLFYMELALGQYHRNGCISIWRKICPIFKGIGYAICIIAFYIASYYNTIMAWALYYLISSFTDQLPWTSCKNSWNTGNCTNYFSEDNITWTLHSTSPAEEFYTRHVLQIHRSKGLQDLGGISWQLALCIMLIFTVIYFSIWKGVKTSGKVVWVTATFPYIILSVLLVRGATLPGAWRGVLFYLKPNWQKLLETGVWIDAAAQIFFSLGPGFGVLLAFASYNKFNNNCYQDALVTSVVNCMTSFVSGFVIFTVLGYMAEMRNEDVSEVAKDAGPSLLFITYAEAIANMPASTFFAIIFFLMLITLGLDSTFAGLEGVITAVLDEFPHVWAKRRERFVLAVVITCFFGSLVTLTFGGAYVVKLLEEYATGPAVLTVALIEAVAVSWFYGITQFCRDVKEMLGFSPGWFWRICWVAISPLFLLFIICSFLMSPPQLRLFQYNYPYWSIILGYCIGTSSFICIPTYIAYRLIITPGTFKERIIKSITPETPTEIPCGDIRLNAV

Compound | IC50 (h5-HT Transporter) | EC50 (h5HT1a receptor) | Ki (human 5-HT1A receptors [1]) | EC50 (human 5-HT1A receptors [2]; agonist potency, read-out: 5-HT1A Function GTPγS EC50) | IC50 (h5HT1a receptor) | IC50 (human 5-HT1A receptors [2])
CCOc1ccc(C(N)=O)c2c1OC[C@H](N(CCCc1c[nH]c3ccc(F)cc13)C1CCC1)C2 [Example 3, (3R)-3-{cyclobutyl[3-(5-fluoro-1H-indol-3-yl)propyl]amino}-8-ethoxychromane-5-carboxamide] | 329 nM | – | 108 nM | – | 768 nM | 5030 nM
CCCOc1ccc(C(N)=O)c2c1OC[C@H](N(CCCc1c[nH]c3ccc(F)cc13)C1CCC1)C2 [Example 4, (3R)-3-{cyclobutyl[3-(5-fluoro-1H-indol-3-yl)propyl]amino}-8-propoxychromane-5-carboxamide] | 450 nM | 151 nM | 70.1 nM | – | – | 684 nM
NC(=O)c1ccc(O)c2c1C[C@@H](N(CCCc1c[nH]c3ccc(F)cc13)C1CCC1)CO2 [Example 6, (3R)-3-{cyclobutyl[3-(5-fluoro-1H-indol-3-yl)propyl]amino}-8-hydroxychromane-5-carboxamide] | 347 nM | 312 nM | 136 nM | – | – | 2550 nM
COc1ccc(C(N)=O)c2c1OC[C@H](N(CCCc1c[nH]c3ccc(F)cc13)CCC(F)(F)F)C2 [Example 7, (3R)-3-{3,3,3-trifluoropropyl[3-(5-fluoro-1H-indol-3-yl)propyl]amino}-8-methoxychromane-5-carboxamide] | 2680 nM | – | 636 nM | – | – | –
COc1ccc(C(N)=O)c2c1OC[C@H](N(CCCc1c[nH]c3ccc(F)cc13)CCCC(F)(F)F)C2 [Example 12, (3R)-3-{4,4,4-trifluorobutyl[3-(5-fluoro-1H-indol-3-yl)propyl]amino}-8-methoxychromane-5-carboxamide] | 2580 nM | – | – | – | – | –
COc1ccc(C(N)=O)c2c1OC[C@H](N(CCCc1c[nH]c3ccc(F)cc13)CC(C)C)C2 [Example 13, (3R)-3-{2-methylpropyl[3-(5-fluoro-1H-indol-3-yl)propyl]amino}-8-methoxychromane-5-carboxamide] | 339 nM | – | 214 nM | – | – | 2950 nM
CNC(=O)c1ccc(OC)c2c1C[C@@H](N(CCCc1c[nH]c3ccc(F)cc13)CCC(F)(F)F)CO2 [Example 17, (3R)-3-{3,3,3-trifluoropropyl[3-(5-fluoro-1H-indol-3-yl)propyl]amino}-8-methoxychromane-5-methylcarboxamide] | 5540 nM | – | 662 nM | – | – | –
COc1ccc(C(N)=O)c2c1OC[C@H](N(CCCC1CNc3ccc(F)cc31)C1CCC1)C2 (stereo partly drawn) [Example 19, (3R)-3-{cyclobutyl[3-(5-fluoro-1H-indolin-3-yl)propyl]amino}-8-methoxy-chromane-5-carboxamide] | 407 nM | – | 43.6 nM | – | 99.9 nM | –
CCSc1ccc(C(N)=O)c2c1OC[C@H](N(CCCc1c[nH]c3ccc(F)cc13)C1CCC1)C2 [Example 23, (3R)-3-{cyclobutyl[3-(5-fluoro-1H-indol-3-yl)propyl]amino}-8-(ethylthio)chromane-5-carboxamide] | 831 nM | – | 138 nM | – | 137 nM | –
(3R)-3-{2-isopropyl[3-(5-fluoro-1H-indol-3-yl)propyl]amino}-8-methoxychromane-5-carboxamide [Example 9] | – | – | 515 nM | – | – | –

Further lines, results first:

IC50 (h5-HT Transporter) | EC50 (h5HT1a receptor) | Ki (human 5-HT1A receptors [1]) | EC50 (human 5-HT1A receptors [2]; agonist potency, read-out: 5-HT1A Function GTPγS EC50) | IC50 (h5HT1a receptor) | IC50 (human 5-HT1A receptors [2]) | Compound
234 nM | 230 nM | 113 nM | 489 nM | – | – | COc1ccc(C(N)=O)c2c1OC[C@H](NCCCc1c[nH]c3ccc(F)cc13)C2 [Example 1, (3R)-3-[3-(5-fluoro-1H-indol-3-yl)propyl]amino-8-methoxychromane-5-carboxamide]
13.2 nM | – | 10.4 nM | – | 92.1 nM | 119 nM | COc1ccc(C(N)=O)c2c1OC[C@H](N(CCCc1c[nH]c3ccc(F)cc13)C1CCC1)C2 [Example 2, (3R)-3-{cyclobutyl[3-(5-fluoro-1H-indol-3-yl)propyl]amino}-8-methoxychromane-5-carboxamide]
214 nM | 118 nM | 35.3 nM | – | – | 3150 nM | CC(C)Oc1ccc(C(N)=O)c2c1OC[C@H](N(CCCc1c[nH]c3ccc(F)cc13)C1CCC1)C2 [Example 5, (3R)-3-{cyclobutyl[3-(5-fluoro-1H-indol-3-yl)propyl]amino}-8-isopropoxychromane-5-carboxamide]
45.3 nM | – | 25.5 nM | – | 439 nM | 442 nM | COc1ccc(C(N)=O)c2c1OC[C@H](N(CCCc1c[nH]c3ccc(F)cc13)CC1CC1)C2 [Example 8, (3R)-3-{cyclopropylmethyl[3-(5-fluoro-1H-indol-3-yl)propyl]amino}-8-methoxychromane-5-carboxamide]
8 nM | 186 nM | 20.5 nM | – | – | 321 nM | CCCN(CCCc1c[nH]c2ccc(F)cc12)[C@H]1COc2c(OC)ccc(C(N)=O)c2C1 [Example 10, (3R)-3-{propyl[3-(5-fluoro-1H-indol-3-yl)propyl]amino}-8-methoxychromane-5-carboxamide]
279 nM | – | 98.7 nM | – | 375 nM | 3030 nM | CCCCN(CCCc1c[nH]c2ccc(F)cc12)[C@H]1COc2c(OC)ccc(C(N)=O)c2C1 [Example 11, (3R)-3-{butyl[3-(5-fluoro-1H-indol-3-yl)propyl]amino}-8-methoxychromane-5-carboxamide]
2.62 nM | – | 402 nM | – | – | 1370 nM | CCN(CCCc1c[nH]c2ccc(F)cc12)[C@H]1COc2c(OC)ccc(C(N)=O)c2C1 [Example 14, (3R)-3-{ethyl[3-(5-fluoro-1H-indol-3-yl)propyl]amino}-8-methoxychromane-5-carboxamide]
160 nM | – | 1700 nM | – | – | – | COc1ccc(C(N)=O)c2c1OC[C@H](N(C)CCCc1c[nH]c3ccc(F)cc13)C2 [Example 15, (3R)-3-{methyl[3-(5-fluoro-1H-indol-3-yl)propyl]amino}-8-methoxychromane-5-carboxamide]
110 nM | – | 61.3 nM | – | 94.2 nM | – | COc1ccc(C(N)=O)c2c1OC[C@H](N(CCCc1c[nH]c3c(F)cc(F)cc13)C1CCC1)C2 [Example 18, (3R)-3-{cyclobutyl[3-(5,7-difluoro-1H-indol-3-yl)propyl]amino}-8-methoxy-chromane-5-carboxamide]
125 nM | – | 72.7 nM | – | – | – | CN(C)c1ccc(C(N)=O)c2c1OC[C@H](N(CCCc1c[nH]c3ccc(F)cc13)C1CCC1)C2 [Example 24, (3R)-3-{cyclobutyl[3-(5-fluoro-1H-indol-3-yl)propyl]amino}-8-(dimethylamino) chromane-5-carboxamide]
